Reference: US20230088286A1, “USP7 INHIBITOR FOR USE IN THE TREATMENT OF CANCER” (ALMAC DISCOVERY LIMITED, priority 2020, published 2023)
Residues, ends and D or L forms follow the SMILES beside them. *: point of attachment. Cbz = O=C(OCc1ccccc1)*

Tests used:
[1] = test system: primary human fibroblasts (HDF) in hypoxic chamber; assay: sVEGF ELISA in primary fibroblasts under hypoxia; type: cell-based; conditions: 48 h
Text: FIG. 9: USP7 inhibition decreases VEGF levels in fibroblasts under hypoxia.
In response to wounding and during tumour growth, activated fibroblasts secrete synthesizers and modifiers of the ECM but also soluble angiogenic growth factors such as VEGF. Although VEGF gene expression can be controlled by multiple transcription factors, its major regulator is hypoxia-inducible factor 1 (HIF-1). HIF-1 mediates activation of VEGF transcription in response to hypoxia in solid tumours and in various malignant cell lines.
To assess its potency in a functional assay, HDF were treated with vehicle or various concentrations of USP7 inhibitor ADC-159 and incubated for 48 hours in hypoxic chamber. Cell culture supernatants were collected, and secreted VEGF was measured by ELISA.
(§1) For the co-culture experiments, 5×10^4 cancer cells were seeded in transwell in 0.5 mL complete growth medium and placed on the top of 0.1×10^6 fibroblasts plated in 12-well in 1 mL low serum growth media overnight. Following day cancer cells were washed with PBS and media replaced with reduced (1%) serum growth media. 0.5×10^6 PBMC were plated on top of fibroblasts, incubated for 45 min and activated with CD3 (1 μg/ml final concentration) and CD28 (5 μg/ml final concentration). […] Monoculture experiments, 0.1×10^6 cells were seeded in 12-well in 1 mL of complete growth media (cancer cells) or low serum growth media (fibroblasts) and incubated overnight. […] Afterwards, cell culture media was collected, cell debris were removed by centrifugation the concentration of VEGF in the cell culture supernatants was measured using the human/mouse VEGF immunoassay Quantikine ELISA kit (R&D systems, Minneapolis, Minn., USA) according to the manufacturer's instructions. For the intracellular VEGF detection, total protein concentration was determined by BCA (Pierce Chemical, USA) and VEGF levels determined using the same kit described above.

[2] = test system: activated primary fibroblasts WI38, IMR90 and HDF; assay: sVEGF ELISA in activated primary fibroblasts; type: cell-based, human; conditions: cancer cells, immortalized fibroblasts and FGF-2 activated primary fibroblasts, normoxia or hypoxia, 48 hours
Text: FIG. 5: USP7 inhibition decreased secreted VEGF levels in activated fibroblasts. The USP7-mediated decrease in VEGF secretion observed in the co-cultures can be solely attributed to modulation of secreted VEGF in primary fibroblasts.
(FIG. 4). […] During the wound healing process or following stimulation by acute or chronic inflammatory signals, fibroblasts acquire an activated phenotype (referred to as myofibroblasts). Once activated, myofibroblasts proliferate and migrate, show contractile activity, exert physical forces to modify tissue architecture and become transcriptionally active leading to the secretion of cytokines, chemokines and extra-cellular matrix (ECM) components. In the tumour microenvironment, the majority of residual fibroblasts become activated and are known as cancer associated fibroblasts (CAF). In order to generate a myofibroblast phenotype, WI38, IMR90 and HDF were co-cultured with anti-CD3/anti-CD28 stimulated PBMCs or were stimulated by FGF-2 or TGFβ. […] The USP7 inhibitor-mediated decrease in VEGF secretion was only observed in primary fibroblasts; immortalized lung fibroblasts (WI38-VA13) were insensitive to USP7 inhibitor treatment, probably due to the destabilized p53 in the SV-40 immortalized fibroblasts (FIG. 7).
as §1

MMP-7 = MMP-7 in supernatants of HDF invasion assay (Luminex); type: cell-based, human; conditions: invading HDF, 96 hours
Protocol: The scratch wound cell invasion assay was used to measure the ability of primary human fibroblasts to invade through Matrigel® basement membrane. Cell culture supernatants from invasion assay were collected after 96 hours and MMP-7 levels were measured using Luminex®.
To further explore whether USP7 inhibition modulates MMP levels in invading fibroblasts, cell culture supernatants from HDF invasion assay were collected and presence of various MMP was detected using Luminex® Multiplex assay.
(§2) Concentrations of MMP2 and MMP7 were determined in cell culture supernatants in triplicates using Luminex human cytokine/chemokine multiplex kits (Millipore, St. Charles, Mo., USA) according to the manufacturer's protocol.

MMP-2 = MMP-2 in supernatants of HDF and HUVEC co-culture (Luminex); type: cell-based, human; conditions: supernatants after 14 days
Protocol: Cell culture supernatants from tube formation were collected and MMP-2 levels were measured using Luminex®.
Next, the underlying mechanism of tube formation inhibition was investigated. […] To determine whether secretion of MMP-2 is modulated by USP7 inhibition, supernatants from HUVEC and HDF co-cultures were collected after 14 days.
as §2

HIF-1α = assay: Ubiquitination assay, TUBE pull-down of polyubiquitinated HIF-1α; type: cell-based, human; conditions: HDF, hypoxia; AD-04 1 μM, MG132 10 μM, 1 hour
Protocol: Given HIF-1α stability is known to be regulated at the protein level by ubiquitination, we investigated whether USP7 inhibition modulates HIF-1α polyubiquitination. […] Cells were harvested, lysed and polyubiquitinated proteins pulled down using two types of Tetra Ubiquitin Binding Entities (TUBES); with equal affinity for K48/K63 or 10 times more affinity for […]. Samples were analysed by immuno-blot using a HIF-1α antibody. […] These findings indicate that USP7 inhibition results in K48 polyubiquitination of HIF-1α and consequently, its proteasomal-mediated degradation.
Cells were lysed in a buffer containing 50 mM Tris-HCl, pH 7.5, 150 mM NaCl, 1 mM EDTA, 1% NP-40, 10% Glycerol, 50 mM NaF, 5 mM sodium pyrophosphate, 10 mM glycerol phosphate, 1 mM sodium orthovanadate, protease and phosphatase inhibitor tablet and 50 uM PR-619. Lysates were pre-cleared by centrifugation at 4° C. for 15 mins at 16,000× g and protein concentration determined using BCA method. 20 ul of samples was taken as input. Pre-cleared supernatant containing 0.5 mg of total protein was added to 20 ul equilibrated Agarose-TUBE 1 or TUBE 2 beads (Life Sensors) and incubated for 2 hours at 4° C. on a rocker platform. Beads were collected by low speed centrifugation (1000-5000× g, 4° C.) for 5 minutes and supernatant taken as FT. Beads were washed twice with 1 ml TBS-T (20 mM Tris-HCl, pH 8.0, 0.15M NaCl, 0.1% Tween-20) and collected by low speed centrifugation. Finally, beads were resuspended in 30 ul of SDS reducing sample buffer and boiled for 10 min at 95° C.

[3] = test system: CT-26 cells in BALB/C mice; assay: CT-26 syngeneic tumour model (AD-04 study)
Protocol: FIG. 30: Effect of USP7 on the tumour microenvironment in vivo.
For subcutaneous tumour implantation, CT26 cells were injected subcutaneously (1×10^6cells in 200 μL of RPMI) in the right flank of 8- to 10-week-old BALB/c female mice. […] Tumour volume (in mm^3) was measured twice a week with a digital caliper and calculated by the following formula: volume=(width)^2×length/2. Body weight was measured twice a week. […]

Row | Molecule | VEGF secretion under hypoxia [1] | secretion of VEGF (benchmark against MDM2 antagonists) [2] | also measured
1 | O=C(c1cnc(C2CC2)o1)N1CCC(O)(Cn2cnc3c(cc(Cl)n3-c3ccc4c(c3)CCO4)c2=O)CC1 [ADC-160, 6-Chloro-3-((1-(2-cyclopropyloxazole-5-carbonyl)-4-hydroxypiperidin-4-yl)methyl)-7-(2,3-dihydrobenzofuran-5-yl)-3,7-dihydro-4H-pyrrolo[2,3-d]pyrimidin-4-One] | Comparable results | – | –
2 | O=C(c1cnc(C2CC2)o1)N1CCC(O)(Cn2cnc3c(cc(Cl)n3-c3ccc4c(c3)OCC4)c2=O)CC1 [ADC-199, 6-Chloro-3-((1-(2-cyclopropyloxazole-5-carbonyl)-4-hydroxypiperidin-4-yl)methyl)-7-(2,3-dihydrobenzofuran-6-yl)-3,7-dihydro-4H-pyrrolo[2,3-d]pyrimidin-4-One] | Comparable results | – | –
3 | COc1ccc(C2=N[C@@H](c3ccc(Cl)cc3)[C@@H](c3ccc(Cl)cc3)N2C(=O)N2CCNC(=O)C2)c(OC(C)C)c1 [Nutlin-3a] | – | not able to modulate | –
4 | CC1(C(=O)N2CCC(O)(Cn3cnc4c(cc(Cl)n4-c4ccc5c(c4)OCC5)c3=O)CC2)CC1 [ADC-198, 6-Chloro-7-(2,3-dihydrobenzofuran-6-yl)-3-[[4-hydroxy-1-(1-methylcyclopropanecarbonyl)-4-piperidyl]methyl]pyrrolo[2,3-d]pyrimidin-4-One] | Comparable results | – | –
5 | Avastin: anti-VEGF monoclonal antibody bevacizumab [reference compound] | – | – | MMP-7 levels (MMP-7): did not have significant effect; MMP-2 levels (MMP-2): did not have significant impact
6 | CC1(C(=O)N2CCC(O)(Cn3cnc4c(cc(Cl)n4-c4ccc5c(c4)OCO5)c3=O)CC2)CC1 [ADC-556, 7-(Benzo[d][1,3]dioxol-5-yl)-6-chloro-3-((4-hydroxy-1-(1-methylcyclopropane-1-carbonyl)piperidin-4-yl)methyl)-3,7-dihydro-4H-pyrrolo[2,3-d]pyrimidin-4-One] | Comparable results | – | –
7 | CCOc1cc(C(C)(C)C)ccc1C1=N[C@@](C)(c2ccc(Cl)cc2)[C@@](C)(c2ccc(Cl)cc2)N1C(=O)N1CCN(CCCS(C)(=O)=O)CC1 [RG7112] | – | not able to modulate | –
8 | CC(C)(C)C[C@@H]1N[C@@H](C(=O)N[C@H]2CC[C@H](O)CC2)[C@H](c2cccc(Cl)c2F)[C@]12C(=O)Nc1cc(Cl)ccc12 [SAR405838] | – | not able to modulate | –
9 | CC(C)C[C@@H](C=O)NC(=O)[C@H](CC(C)C)NC(=O)[C@H](CC(C)C)NC(=O)OCc1ccccc1 [MG132, reference compound] (Cbz-Leu-Leu-Leu-aldehyde) | – | – | K63/K48 polyubiquitinated HIF-1α (HIF-1α): increased polyubiquitination
10 | CNC(=O)c1cc(Oc2ccc(NC(=O)Nc3ccc(Cl)c(C(F)(F)F)c3)cc2)ccn1 [Sorafenib, reference compound] | – | – | tumour growth inhibition ([3]; highest AD-04 dose (subcutaneous infusion), Sorafenib oral positive control, day 15 post tumour implantation): 58%; tolerability, bodyweight of tumour-bearing mice ([3]; mouse, in vivo): no significant bodyweight loss
